For orientation: Ki means the equilibrium dissociation constant of an inhibitor or competing ligand from its target. High values mean weaker binding, low ones tighter binding.

Here are results for one compound from BindingDB's records for doi:10.1016/j.bmc.2014.04.026 (Florida A&M University, 2014).

This assay has as its target D(3) dopamine receptor (Homo sapiens, UniProt P35462). The assay can be described thus: Displacement of [3H]N-methylspiperone from human dopamine D3 receptor by PDSP assay.

Each structure is given as a SMILES string.

Sequence of D(3) dopamine receptor (P35462 as listed by the source): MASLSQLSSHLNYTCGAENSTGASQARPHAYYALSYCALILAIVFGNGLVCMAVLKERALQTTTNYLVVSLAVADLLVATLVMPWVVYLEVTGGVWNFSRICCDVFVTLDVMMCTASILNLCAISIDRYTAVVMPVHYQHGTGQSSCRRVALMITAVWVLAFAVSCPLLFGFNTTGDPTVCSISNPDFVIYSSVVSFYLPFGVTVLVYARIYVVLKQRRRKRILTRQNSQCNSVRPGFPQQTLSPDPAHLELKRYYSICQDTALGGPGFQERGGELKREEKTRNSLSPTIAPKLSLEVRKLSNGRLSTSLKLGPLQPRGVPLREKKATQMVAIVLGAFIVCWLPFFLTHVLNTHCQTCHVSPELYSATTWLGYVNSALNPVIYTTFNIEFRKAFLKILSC

`Clc1ccc(N2C[C@H]3C[C@@H]2CN3CCCc2cc3ccccc3o2)cc1` showed an inhibition constant (Ki) of 671 nM.
